Measurements: PubChem BioAssay AID1963440 (Molecular Pharmacology Branch, DTP, NCI, 2024)
pIC50: −log10 of the molar value.

System: NCI-H1417 complex spheroids, growth % test/control
Test: Anticancer human tumor NCI-H1417 cell line growth inhibition [Asc];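 note: spheroids exposed to compounds for 7 days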;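 for viability, T/C: 100% = DMSO vehicle control wells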
Conditions: for pIC50: curve of first compound; for viability, T/C: stronger effect = lower value
Method in brief: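 Tumor cells were grown as multicellular spheroids with stromal HUVEC and mesenchymal stem cells and treated singly or in combination. Concentrations fell in half-log steps from the clinical Cmax, or from 10 microM where none was known.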

[1] = second compound 0.1 µM, first compound 0.0316 µM
[2] = second compound 0.1 µM, first compound 0.1 µM
[3] = second compound 0.1 µM, first compound 0.316 µM
[4] = second compound 0.1 µM, first compound 1 µM
[5] = second compound 0.1 µM, first compound 3.16 µM
[6] = second compound 0.1 µM, first compound 10 µM
[7] = second compound 0.316 µM, first compound 0.0316 µM
[8] = second compound 0.316 µM, first compound 0.1 µM
[9] = second compound 0.316 µM, first compound 0.316 µM
[10] = second compound 0.316 µM, first compound 1 µM
[11] = second compound 0.316 µM, first compound 3.16 µM
[12] = second compound 0.316 µM, first compound 10 µM
[13] = second compound 1 µM, first compound 0.0316 µM
[14] = second compound 1 µM, first compound 0.1 µM
[15] = second compound 1 µM, first compound 0.316 µM
[16] = second compound 1 µM, first compound 1 µM
[17] = second compound 1 µM, first compound 3.16 µM
[18] = second compound 1 µM, first compound 10 µM
[19] = second compound 3.16 µM, first compound 0.0316 µM
[20] = second compound 3.16 µM, first compound 0.1 µM
[21] = second compound 3.16 µM, first compound 0.316 µM
[22] = second compound 3.16 µM, first compound 1 µM
[23] = second compound 3.16 µM, first compound 3.16 µM
[24] = second compound 3.16 µM, first compound 10 µM
[25] = second compound 10 µM, first compound 0.0316 µM
[26] = second compound 10 µM, first compound 0.1 µM
[27] = second compound 10 µM, first compound 0.316 µM
[28] = second compound 10 µM, first compound 1 µM
[29] = second compound 10 µM, first compound 3.16 µM
[30] = second compound 10 µM, first compound 10 µM

Work on `C=C(F)C(=O)N1CCN(c2nc(OCC3CCCN3C)nc3c2CCN(c2cccc4cccc(Cl)c24)C3)CC1CC#N` (stereo not given) + Cc1c(S(C)(=O)=O)c(-c2cc(F)cc(N3CCN(c4ccc(NS(=O)(=O)c5ccc(NC(CCN6CCC(C(=O)OCCCP(=O)(O)O)CC6)CSc6ccccc6)c(S(=O)(=O)C(F)(F)F)c5)cc4)CC3)c2)c(-c2ccc(Cl)cc2)n1C(C)C yielded a pIC50 (second compound 0.1 µM) of 5.91, a pIC50 (second compound 0.316 µM) greater than 7.50 and a pIC50 (second compound 1 µM) greater than 7.50. It also gave a pIC50 (second compound 3.16 µM) greater than 7.50, a pIC50 (second compound 10 µM) greater than 7.50 and a viability, T/C [1] of 75.7%. It also gave a viability, T/C [2] of 80%, a viability, T/C [3] of 67.9% and a viability, T/C [4] of 61.1%. For the same compound, the viability, T/C [5] was 1.57%, the viability, T/C [6] was 0.85% and the viability, T/C [7] was 43.5%. The viability, T/C [8] was 46%, the viability, T/C [9] was 35.5% and the viability, T/C [10] was 14%. For the same compound, the viability, T/C [11] was 0.94%, the viability, T/C [12] was 0.12% and the viability, T/C [13] was 12.3%. For the same compound, the viability, T/C [14] was 9.05%, the viability, T/C [15] was 5.54% and the viability, T/C [16] was 2.95%. For the same compound, the viability, T/C [17] was 0.15%, the viability, T/C [18] was 0.11% and the viability, T/C [19] was 2.93%. For the same compound, the viability, T/C [20] was 2.78%, the viability, T/C [21] was 2.82% and the viability, T/C [22] was 2.57%. It also gave a viability, T/C [23] of 0.11%, a viability, T/C [24] of 0.12% and a viability, T/C [25] of 2.01%. For the same compound, the viability, T/C [26] was 2.86%, the viability, T/C [27] was 3.34% and the viability, T/C [28] was 1.29%. The viability, T/C [29] was 0.21% and the viability, T/C [30] was 0.19%.
With `C=CC(=O)N1CCN(c2nc(=O)n(-c3c(C)ccnc3C(C)C)c3nc(-c4c(O)cccc4F)c(F)cc23)C(C)C1` (stereo not given) + Cc1c(S(C)(=O)=O)c(-c2cc(F)cc(N3CCN(c4ccc(NS(=O)(=O)c5ccc(NC(CCN6CCC(C(=O)OCCCP(=O)(O)O)CC6)CSc6ccccc6)c(S(=O)(=O)C(F)(F)F)c5)cc4)CC3)c2)c(-c2ccc(Cl)cc2)n1C(C)C the pIC50 (second compound 0.1 µM) was less than 5.00, the pIC50 (second compound 0.316 µM) was 5.40 and the pIC50 (second compound 1 µM) was greater than 7.50. For the same compound, the pIC50 (second compound 3.16 µM) was greater than 7.50, the pIC50 (second compound 10 µM) was greater than 7.50 and the viability, T/C [1] was 79.9%. It also gave a viability, T/C [2] of 97.7%, a viability, T/C [3] of 94% and a viability, T/C [4] of 88.7%. It also gave a viability, T/C [5] of 79.5%, a viability, T/C [6] of 76.5% and a viability, T/C [7] of 50.7%. For the same compound, the viability, T/C [8] was 52.8%, the viability, T/C [9] was 59.2% and the viability, T/C [10] was 55.8%. For the same compound, the viability, T/C [11] was 60.4%, the viability, T/C [12] was 26.5% and the viability, T/C [13] was 12.8%. The viability, T/C [14] was 19%, the viability, T/C [15] was 19.2% and the viability, T/C [16] was 27.2%. The viability, T/C [17] was 15.7%, the viability, T/C [18] was 6.31% and the viability, T/C [19] was 3.89%. The viability, T/C [20] was 4.22%, the viability, T/C [21] was 4.64% and the viability, T/C [22] was 3.72%. It also gave a viability, T/C [23] of 3.98%, a viability, T/C [24] of 3.94% and a viability, T/C [25] of 2.86%. It also gave a viability, T/C [26] of 2.89%, a viability, T/C [27] of 3.43% and a viability, T/C [28] of 2.4%. For the same compound, the viability, T/C [29] was 3.1% and the viability, T/C [30] was 3.85%.
Work on `CCN1C(C(=O)NC23CCC(C(=O)O)(CC2)CC3)C(c2cccc(Cl)c2F)C2(C(=O)Nc3cc(Cl)ccc32)C12CCCCC2` (stereo not given) + Cc1c(S(C)(=O)=O)c(-c2cc(F)cc(N3CCN(c4ccc(NS(=O)(=O)c5ccc(NC(CCN6CCC(C(=O)OCCCP(=O)(O)O)CC6)CSc6ccccc6)c(S(=O)(=O)C(F)(F)F)c5)cc4)CC3)c2)c(-c2ccc(Cl)cc2)n1C(C)C yielded a pIC50 (second compound 0.1 µM) of 6.23, a pIC50 (second compound 0.316 µM) greater than 8.02 and a pIC50 (second compound 1 µM) greater than 8.02. It also gave a pIC50 (second compound 3.16 µM) greater than 8.02, a pIC50 (second compound 10 µM) greater than 8.02 and a viability, T/C (second compound 0.1 µM, first compound 0.00949 µM) of 78.9%. The viability, T/C (second compound 0.1 µM, first compound 0.03 µM) was 81.2%, the viability, T/C (second compound 0.1 µM, first compound 0.0949 µM) was 67.5% and the viability, T/C (second compound 0.1 µM, first compound 0.3 µM) was 58.7%. It also gave a viability, T/C (second compound 0.1 µM, first compound 0.949 µM) of 44.9%, a viability, T/C (second compound 0.1 µM, first compound 3 µM) of 16.4% and a viability, T/C (second compound 0.316 µM, first compound 0.00949 µM) of 35.7%. It also gave a viability, T/C (second compound 0.316 µM, first compound 0.03 µM) of 33.3%, a viability, T/C (second compound 0.316 µM, first compound 0.0949 µM) of 22.1% and a viability, T/C (second compound 0.316 µM, first compound 0.3 µM) of 16.4%. For the same compound, the viability, T/C (second compound 0.316 µM, first compound 0.949 µM) was 11.8%, the viability, T/C (second compound 0.316 µM, first compound 3 µM) was 1.6% and the viability, T/C (second compound 1 µM, first compound 0.00949 µM) was 11.4%. It also gave a viability, T/C (second compound 1 µM, first compound 0.03 µM) of 6.74%, a viability, T/C (second compound 1 µM, first compound 0.0949 µM) of 4.76% and a viability, T/C (second compound 1 µM, first compound 0.3 µM) of 2.15%. It also gave a viability, T/C (second compound 1 µM, first compound 0.949 µM) of 1.25%, a viability, T/C (second compound 1 µM, first compound 3 µM) of 0.65% and a viability, T/C (second compound 3.16 µM, first compound 0.00949 µM) of 2.36%. It also gave a viability, T/C (second compound 3.16 µM, first compound 0.03 µM) of 2.41%, a viability, T/C (second compound 3.16 µM, first compound 0.0949 µM) of 1.59% and a viability, T/C (second compound 3.16 µM, first compound 0.3 µM) of 1.03%. It also gave a viability, T/C (second compound 3.16 µM, first compound 0.949 µM) of 0.63%, a viability, T/C (second compound 3.16 µM, first compound 3 µM) of 0.39% and a viability, T/C (second compound 10 µM, first compound 0.00949 µM) of 1.88%. For the same compound, the viability, T/C (second compound 10 µM, first compound 0.03 µM) was 2.25%, the viability, T/C (second compound 10 µM, first compound 0.0949 µM) was 2.08% and the viability, T/C (second compound 10 µM, first compound 0.3 µM) was 1.02%. The viability, T/C (second compound 10 µM, first compound 0.949 µM) was 0.65% and the viability, T/C (second compound 10 µM, first compound 3 µM) was 0.29%.
`CNC(C)C(=O)NC1CN(S(=O)(=O)c2cccc(S(=O)(=O)N3CCC4CCC(C(=O)NC(c5ccccc5)c5ccccc5)N4C(=O)C(NC(=O)C(C)NC)C3)c2)CCC2CCC(C(=O)NC(c3ccccc3)c3ccccc3)N2C1=O` (stereo not given) + Cc1c(S(C)(=O)=O)c(-c2cc(F)cc(N3CCN(c4ccc(NS(=O)(=O)c5ccc(NC(CCN6CCC(C(=O)OCCCP(=O)(O)O)CC6)CSc6ccccc6)c(S(=O)(=O)C(F)(F)F)c5)cc4)CC3)c2)c(-c2ccc(Cl)cc2)n1C(C)C gave a pIC50 (second compound 0.1 µM) of less than 6.00, a pIC50 (second compound 0.316 µM) greater than 8.50 and a pIC50 (second compound 1 µM) greater than 8.50. It also gave a pIC50 (second compound 3.16 µM) greater than 8.50, a pIC50 (second compound 10 µM) greater than 8.50 and a viability, T/C (second compound 0.1 µM, first compound 0.00316 µM) of 94.1%. It also gave a viability, T/C (second compound 0.1 µM, first compound 0.01 µM) of 95.3%, a viability, T/C [1] of 80.2% and a viability, T/C [2] of 74.7%. For the same compound, the viability, T/C [3] was 84.6%, the viability, T/C [4] was 81.1% and the viability, T/C (second compound 0.316 µM, first compound 0.00316 µM) was 42.4%. It also gave a viability, T/C (second compound 0.316 µM, first compound 0.01 µM) of 47.4%, a viability, T/C [7] of 47.6% and a viability, T/C [8] of 36.8%. The viability, T/C [9] was 38%, the viability, T/C [10] was 39.3% and the viability, T/C (second compound 1 µM, first compound 0.00316 µM) was 12.2%. For the same compound, the viability, T/C (second compound 1 µM, first compound 0.01 µM) was 10.3%, the viability, T/C [13] was 9.05% and the viability, T/C [14] was 8.75%. For the same compound, the viability, T/C [15] was 4.64%, the viability, T/C [16] was 4.71% and the viability, T/C (second compound 3.16 µM, first compound 0.00316 µM) was 3.82%. The viability, T/C (second compound 3.16 µM, first compound 0.01 µM) was 2.79%, the viability, T/C [19] was 2.43% and the viability, T/C [20] was 2.42%. The viability, T/C [21] was 2.07%, the viability, T/C [22] was 1.84% and the viability, T/C (second compound 10 µM, first compound 0.00316 µM) was 2.6%. The viability, T/C (second compound 10 µM, first compound 0.01 µM) was 1.96%, the viability, T/C [25] was 3.22% and the viability, T/C [26] was 1.45%. The viability, T/C [27] was 1.71% and the viability, T/C [28] was 1.47%.
